pIC50: −log10 of the molar value. Like-named read-outs stand apart in the source and are kept apart here.
Key:
[1] = system: Hs578Ts(i)8 cells; experiment: Antiproliferative activity in invasive Hs578Ts(i)8 cells; assay type: cell-based
[2] = system: MCF-7 cells; experiment: Cell cycle analysis (PI flow cytometry); assay type: cell-based, human; details: for apoptotic cells (sub-G0G1): 72 h
Description: MCF-7 cells (adherent and detached) were treated with the appropriate concentration of compound 7s and incubated for the designated time. Cells were collected, trypsinised and centrifuged at 800× g for 15 min. Cells were washed twice with ice-cold PBS and fixed in ice-cold 70% ethanol overnight at −20 °C. Fixed cells were centrifuged at 800× g for 15 min and stained with 50 μg/mL of PI, containing 50 μg/mL of DNase-free RNase A, at 37 °C for 30 min.

[3] = system: colchicine-binding site of tubulin; experiment: Colchicine-binding site assay (EBI cross-linking, Western blot) in MCF-7 cells; assay type: cell-based, human; details: 10 μM for 2 h, then EBI 100 μM for 1.5 h
Description: MCF-7 cells were seeded at a density of 5 × 10^4 cells/well in 6-well plates and incubated overnight. Cells were treated with vehicle control [ethanol (0.1% v/v)] or compound 7s (10 μM) for 2 h. After this time, selected wells were treated with N,N′-ethylene-bis(iodoacetamide)(EBI) (100 μM) (Santa Cruz Biotechnology Inc. 10410 Finnell Street, Dallas, Texas, USA) for 1.5 h. Following treatment, cells were twice washed with ice-cold PBS and lysed by addition of Laemmli buffer. Samples were separated by SDS-PAGE, trasnsferred to polyvinylidene difluoride membranes and probed with β-tubulin antibodies (Sigma-Aldrich, 2033 Westport Center Dr, St. Louis, MO, USA).

[4] = system: K562; experiment: Antiproliferative activity in K562 leukemia cells; assay type: cell-based; details: Homo sapiens
[5] = system: HL-60; experiment: Antiproliferative activity in HL-60 leukemia cells; assay type: cell-based; details: Homo sapiens
Description: The human breast carcinoma cell line MCF-7, was purchased from the European Collection of Animal Cell Cultures (ECACC) and was cultured in Eagle’s minimum essential medium with 10% fetal bovine serum, 2 mM L-glutamine and 100 μg/mL penicillin/streptomycin. The medium was supplemented with 1% non-essential amino acids. The human breast carcinoma cell line MDA-MB-231 was purchased from the European Collection of Animal Cell Cultures (ECACC). MDA-MB-231 cells were maintained in Dulbecco’s modified Eagle’s medium (DMEM) supplemeted with 10% (v/v) fetal bovine serum, 2 mM L-glutamine and 100 μg/mL penicillin/streptomycin (complete medium). All media contained 100 U/mL penicillin and 100 μg/mL streptomycin. […]
Cells were seeded at a density of 5 × 10^3 cells/well (MCF-7), in triplicate in 96-well plates. […] Cell viability for MCF-7 and MDA-MB-231 was analysed using the Alamar Blue assay (Invitrogen Corp, Thermo Fisher Scientific, 168 Third Avenue, Waltham, MA, USA) according to the manufacturer’s instructions. […] Fluorescence was read using a 96-well fluorimeter with excitation at 530 nm and emission at 590 nm. Results were expressed as percentage viability relative to vehicle control (100%). […]

[6] = system: OVCAR-5; experiment: NCI60 screen (SRB), Ovarian cancer; assay type: cell-based; details: Homo sapiens
[7] = system: NCI-H460; experiment: NCI60 screen (SRB), Non-Small Cell Lung Cancer; assay type: cell-based; details: Homo sapiens
[8] = system: NCI-H552; experiment: NCI60 screen (SRB), Non-Small Cell Lung Cancer; assay type: cell-based
[9] = system: MDA-MB-231/ATCC; experiment: NCI60 screen (SRB), Breast cancer; assay type: cell-based, human; details: for pIC50: value from NCI (footnote b)
[10] = system: SW-620; experiment: NCI60 screen (SRB), Colon Cancer; assay type: cell-based; details: Homo sapiens
[11] = system: SK-OV-3; experiment: NCI60 screen (SRB), Ovarian cancer; assay type: cell-based; details: Homo sapiens
[12] = system: HOP-62; experiment: NCI60 screen (SRB), Non-Small Cell Lung Cancer; assay type: cell-based; details: Homo sapiens
[13] = system: NCI-H226; experiment: NCI60 screen (SRB), Non-Small Cell Lung Cancer; assay type: cell-based; details: Homo sapiens
[14] = system: A549/ATCC; experiment: NCI60 screen (SRB), Non-Small Cell Lung Cancer; assay type: cell-based; details: Homo sapiens
[15] = system: NCI-H23; experiment: NCI60 screen (SRB), Non-Small Cell Lung Cancer; assay type: cell-based; details: Homo sapiens
[16] = system: SN12C; experiment: NCI60 screen (SRB), Renal cancer; assay type: cell-based; details: Homo sapiens
[17] = system: BT-549; experiment: NCI60 screen (SRB), Breast cancer; assay type: cell-based; details: Homo sapiens
[18] = system: SR; experiment: NCI60 screen (SRB), Leukemia; assay type: cell-based; details: Homo sapiens
[19] = system: MOLT-4; experiment: NCI60 screen (SRB), Leukemia; assay type: cell-based; details: Homo sapiens
[20] = Whole blood stability study; assay type: in vitro ADME; details: 37 °C
[21] = NCI60 Ovarian cancer cell line OVCAR-5, read-out: GI50
[22] = Homo sapiens, NCI60 Breast cancer cell line MDA-MB-231/ATCC, read-out: GI50
[23] = NCI60 Colon Cancer cell line SW-620, read-out: GI50
[24] = NCI60 Ovarian cancer cell line SK-OV-3, read-out: GI50
[25] = NCI60 Renal cancer cell line SN12C, read-out: GI50
[26] = NCI60 Breast cancer cell line BT-549, read-out: GI50
[27] = NCI60 Leukemia cell line SR, read-out: GI50
[28] = NCI60 Leukemia cell line MOLT-4, read-out: GI50

| Compound | β-tubulin-EBI adduct formation [3] | pIC50 [4] | pIC50 [5] | GI50 ([6]; OVCAR-5) | GI50 [7] | GI50 [8] | GI50 ([9]; Homo sapiens, MDA-MB-231) | GI50 ([10]; SW-620) | GI50 ([11]; SK-OV-3) | GI50 [12] | GI50 [13] | GI50 [14] | GI50 [15] | GI50 ([17]; BT-549) | GI50 [6, 21] | GI50 [9, 22] | GI50 [10, 23] | GI50 [11, 24] | GI50 [16, 25] | GI50 [17, 26] | other results |
| --- | --- | --- | --- | --- | --- | --- | --- | --- | --- | --- | --- | --- | --- | --- | --- | --- | --- | --- | --- | --- | --- |
| COc1ccc(/C=C\c2cc(OC)c(OC)c(OC)c2)cc1O [CA-4, Combretastatin A-4, reference compound] | EBI adduct formation is inhibited | 8.40 | 8.40 | – | – | – | – | – | – | – | – | – | – | – | – | – | – | – | – | – | pIC50 ([1]; invasive Hs578Ts(i)8 cells, read-out: IC50): 7.70; cells in G2M arrest ([2]; 100 nM, 48 h): 52%; sub-G0G1 population ([2]; 100 nM, 48 h): 9.4% |
| C=CC1C(=O)N(c2cc(OC)c(OC)c(OC)c2)C1c1ccc(OC)cc1 (centres unmarked) [Compound 7h, 4-(4-Methoxyphenyl)-1-(3,4,5-trimethoxyphenyl)-3-vinylazetidin-2-one] | – | – | – | 58.7 nM | 36 nM | 20.6 nM | 31.7 nM | 40.2 nM | 28.5 nM | 36.9 nM | 33.9 nM | 41.3 nM | 24.5 nM | 32.5 nM | – | – | – | – | – | – | pIC50 [1]: 7.12; pIC50 ([9]; Homo sapiens, MDA-MB-231, read-out: Antiproliferative Activity IC50, MDA-MB-231): 7.51; pIC50 ([9]; read-out: Antiproliferative Activity IC50, MDA-MB-231): 7.50; GI50 ([16]; SN12C): 55.2 nM |
| C=CC1C(=O)N(c2cc(OC)c(OC)c(OC)c2)C1c1ccc(OC)c(O)c1 (centres unmarked) [Compound 7s, 4-[3-Hydroxy-4-methoxyphenyl]-1-(3,4,5-trimethoxyphenyl)-3-vinylazetidin-2-one] | EBI adduct formation is inhibited | 7.59 | 7.77 | – | – | – | – | – | – | – | – | – | – | – | 45.3 nM | < 10 nM | < 10 nM | 10.5 nM | < 10 nM | < 10 nM | pIC50 ([9]; Homo sapiens, MDA-MB-231, read-out: Antiproliferative Activity IC50): 8.00; cells in G2M arrest ([2]; 10 nM, 24 h): 64%; apoptotic cells (sub-G0G1) ([2]; 10 nM): 14%; cells in G2M arrest ([2]; 100 nM, 24 h): 82%; apoptotic cells (sub-G0G1) ([2]; 100 nM): 26% |
| C=CC1C(=O)N(c2cc(OC)c(OC)c(OC)c2)C1c1ccc(OC)c(N)c1 (centres unmarked) [Compound 7t, 4-(3-Amino-4-methoxyphenyl)-1-(3,4,5-trimethoxyphenyl)-3-vinylazetidin-2-one] | – | – | – | 44.6 nM | 35.5 nM | < 10 nM | 41.5 nM | 40.5 nM | 45.7 nM | 41.2 nM | 38.7 nM | 39.2 nM | 38.7 nM | 25.9 nM | – | – | – | – | – | – | GI50 ([18]; SR): 43.9 nM; GI50 ([19]; MOLT-4): 40 nM |
| C=CC1C(=O)N(c2cc(OC)c(OC)c(OC)c2)C1c1ccc(OC)c(OP(=O)(O)O)c1 (centres unmarked) [Compound 17b, 2-Methoxy-5-(1-(3,4,5-trimethoxyphenyl)-4-oxo-3-vinylazetidin-2-yl)phenyl dihydrogen phosphate] | – | – | – | – | – | – | – | – | – | – | – | – | – | – | 3570 nM | 48.6 nM | 55.2 nM | 97.7 nM | 146 nM | 115 nM | pIC50 ([9]; Homo sapiens, MDA-MB-231, MDA-MB-231, read-out: Antiproliferative Activity IC50): 7.31; pIC50 ([9]; MDA-MB-231, read-out: Antiproliferative Activity IC50): 7.31; GI50 [18, 27]: 57.2 nM; GI50 [19, 28]: 129 nM; remaining after 6 h [20]: 62% |
| CCC1C(=O)N(c2cc(OC)c(OC)c(OC)c2)C1c1ccc(OC)c(OP(=O)(O)O)c1 (centres unmarked) [Compound 17c, 5-(3-Ethyl-1-(3,4,5-trimethoxyphenyl)-4-oxoazetidin-2-yl)-2-methoxyphenyl dihydrogen phosphate] | – | – | – | – | – | – | – | – | – | – | – | – | – | – | 444 nM | 31 nM | 37.9 nM | 34.1 nM | 54.8 nM | 33.8 nM | GI50 [18, 27]: 33.5 nM; GI50 [19, 28]: 47.7 nM; remaining after 6 h [20]: 34% |

Reference: publication PMC6630832, “3-Vinylazetidin-2-Ones: Synthesis, Antiproliferative and Tubulin Destabilizing Activity in MCF-7 and MDA-MB-231 Breast Cancer Cells” (Pharmaceuticals, 2019)
